Measured values: publication PMC6411751, “Use of machine learning to identify novel, behaviorally active antagonists of the insect odorant receptor co-receptor (Orco) subunit” (Scientific Reports, 2019)

The compounds below were run against T1, Agam\Orco (Anopheles gambiae, UniProt Q7QCC7) (assay: cell-based). Conditions: not given.
T1 construct: expressed in transfected cells; host or cells: Xenopus laevis oocytes injected with capped cRNA (plasmid pT7TS, gift of L. Zwiebel)
T1 sequence (Q7QCC7 1-478): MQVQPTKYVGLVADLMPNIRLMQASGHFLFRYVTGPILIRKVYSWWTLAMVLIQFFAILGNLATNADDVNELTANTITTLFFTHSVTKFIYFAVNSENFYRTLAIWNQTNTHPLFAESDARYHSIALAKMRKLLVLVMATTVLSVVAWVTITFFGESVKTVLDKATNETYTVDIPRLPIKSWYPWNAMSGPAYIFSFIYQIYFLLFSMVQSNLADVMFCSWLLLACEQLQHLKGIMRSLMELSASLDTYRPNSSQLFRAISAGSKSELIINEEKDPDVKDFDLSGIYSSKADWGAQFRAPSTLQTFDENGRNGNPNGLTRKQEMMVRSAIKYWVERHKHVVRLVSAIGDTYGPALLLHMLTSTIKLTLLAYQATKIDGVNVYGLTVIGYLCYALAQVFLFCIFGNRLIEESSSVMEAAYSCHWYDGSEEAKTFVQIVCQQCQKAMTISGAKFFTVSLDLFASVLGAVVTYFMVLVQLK
Type: cell-based
Description: A 2 hr incubation with collagenase B (Roche) was used to remove follicle cells from oocytes. Capped cRNA for Agam\Orco was synthesized using mMessage mMachine kits (Thermo Fisher Scientific). 25 ng of cRNA was injected into stage V–VI oocytes, followed by a 2–5 day incubation at 18 °C in Barth’s saline (in mM: 88 NaCl, 1 KCl, 2.4 NaHCO3, 0.3 CaNO3, 0.41 CaCl2, 0.82 MgSO4, 15 HEPES, pH 7.4, and 0.05 g/L tetracycline, 0.05 g/L ciprofloxacin, 0.1 g/L amikacin) prior to electrophysiological recordings.
An automated parallel electrophysiology system (OpusExpress 6000 A, Molecular Devices) was used to record Orco agonist (OLC12) or odorant induced currents under two-electrode voltage clamp. Oocytes were perfused with ND96 (in mM: 96 NaCl, 2 KCl, 1 CaCl2, 1 MgCl2, 5 HEPES, pH 7.4). DMSO was used to prepare 1 M or 100 mM stock solutions of test compounds, which were then diluted in ND96 on the day of the experiment. Compounds were applied at a flow rate of 1.0 mL/min, with extensive washing in ND96 at 4.6 mL/min between applications. Micropipettes with resistances of 0.2–2.0 MΩ were filled with 3 M KCl. The holding potential was −70 mV. Current responses were filtered (4-pole, Bessel, low pass) at 20 Hz (−3 db) and sampled at 100 Hz. OpusXpress 1.1 software (Molecular Devices) was used to capture and store current responses.
To measure antagonist activity at Orco, Agam\Orco was activated by the Orco agonist OLC12[34]. […] The current response to OLC12 in the presence of antagonist candidate was compared to the mean of the preceding two responses to OLC12 alone and presented as a percentage[34],[35]. This value was then normalized to the value obtained when the assay was run in the absence of antagonist candidate (sham).
During development of the training panel (Fig. 2, Tables S1 and S2), all compounds not previously known to be Orco antagonists were tested at a concentration of 3 mM. […] Concentration-inhibition curves were constructed for all compounds eliciting >20 percent inhibition at 3 mM. The same concentration and criteria were used during screening of predicted actives (Fig. 4D) and predicted inactives (Fig. 5C).
Clampfit 9.1 software (Molecular Devices) was used to perform initial analysis of electrophysiological data. Prism 7 (Graphpad) was used for curve fitting. Concentration-inhibition data were fit to the equation: I = Imax/(1 + (X/IC50)^n) where I represents the current response at a given concentration of inhibitor, X; Imax is the maximal response in the absence of inhibitor; IC50 is the concentration of inhibitor present that allows a half maximal response from OLC12; n is the apparent Hill coefficient.

Row | Compound | IC50 [µM] | more potent than BMP [fold]
1 | CC(C)(C)c1ccccc1O [2-tert-butylphenol] | 32 ± 5 | –
2 | CC(C)c1cccc(C(C)(C)C)c1O [2-tert-butyl-6-isopropylphenol] | 50 ± 7 | –
3 | CCc1cccc(CC)c1O [2,6-diethylphenol] | 86 ± 17 | –
4 | c1ccc(CNc2ccccc2)cc1 [n-benzylaniline] | 114 ± 12 | –
5 | CC(C)(C)c1ccc(O)c(C(C)(C)C)c1 [2,4-di-tert-butylphenol] | 15 ± 1 | 3
6 | CC(C)c1ccc(CO)cc1 [4-isopropylbenzyl alcohol] | 605 ± 116 | –

Same assay, conditions: 1 mM compound, 30 µM OLC12

Row | Compound | inhibition of OLC12 activation
7 | CCN(CC)C(=O)c1cccc(C)c1 [DEET, N,N-diethyl-m-toluamide, reference compound] | little or no inhibition

Same assay, conditions: Agam\Orco IC50 compared with 3I6MC

Row | Compound | change in potency relative to 3I6MC
8 | Cc1ccc(C(C)C)c(O)c1 [thymol] | slightly decreased potency

Same assay, conditions: Agam\Orco IC50 compared with BMP

Row | Compound | change in potency relative to BMP
9 | CC(C)(C)c1ccccc1O [2-tert-butylphenol] | slight increase in potency
10 | CC(C)c1cccc(C(C)(C)C)c1O [2-tert-butyl-6-isopropylphenol] | no effect on potency
11 | CCc1cccc(CC)c1O [2,6-diethylphenol] | slightly decreased potency

Same assay, conditions: Table S1; training actives; Agam\Orco activated by 30 µM OLC12; mean ± SEM (n = 3-8); read-out: IC50

Row | Compound | IC50 [µM]
12 | Cc1cc(C)c(NC(=O)c2cccs2)c(C)c1 [OX1L, N-mesityl-2-thiophenecarboxamide, reference compound] | 58 ± 10
13 | COc1ccccc1O [guaiacol] | 4030 ± 654
14 | CCOC(=O)c1ccccc1 [ethyl benzoate] | 569 ± 44
15 | Cc1cccc(O)c1 [m-cresol] | 1280 ± 238
16 | COc1ccccc1 [anisole] | 1170 ± 243
17 | O=Cc1ccc(O)cc1 [4-hydroxybenzaldehyde] | 3620 ± 449
18 | Cc1ccc(CNC(=O)c2cccs2)cc1 [OX3a, N-(4-methylbenzyl)-2-thiophenecarboxamide, reference compound] | 202 ± 15
19 | CC1(C)C(=O)[C@@]2(C)CC[C@H]1C2 [L-fenchone] | 1330 ± 105
20 | C#CC(O)CCCCC (centres unmarked) [1-octyn-3-ol] | 870 ± 60
21 | CCN(CC)C(=O)c1cccc(C)c1 [DEET, N,N-diethyl-m-toluamide, reference compound] | 4480 ± 369
22 | C=CCc1ccc(OC)c(OC)c1 [methyl eugenol] | 525 ± 40
23 | C=C(C)C1CCC(C)C(O)C1 (single isomer, unassigned; (-)) [(-)-dihydrocarveol] | 818 ± 81
24 | Cc1ccc(C(C)C)c(O)c1 [thymol] | 61 ± 10
25 | CC(C)CCOC(=O)Cc1ccccc1 [isoamyl phenylacetate] | 692 ± 66
26 | CC12CCC(CC1)C(C)(C)O2 [eucalyptol] | 2960 ± 255
27 | CC1=NC(C)SC1C (centres unmarked) [2,5-dihydro-2,4,5-trimethylthiazoline] | 13000 ± 2400
28 | COc1nccnc1CC(C)C [2-isobutyl-3-methoxypyrazine] | 1020 ± 83
29 | COC(C)=O [methyl acetate] | 1640 ± 179
30 | C=C(C)[C@@H]1CC[C@@H](C)C(=O)C1 [(+)-dihydrocarvone] | 1240 ± 219
31 | CC(C)OC(=O)C=Cc1ccccc1 [isopropyl cinnamate] | 153 ± 14
32 | (+)-isopulegol | 1370 ± 285
33 | CCCC=O [butyraldehyde] | 3000 ± 333
34 | c1ccsc1 [thiophene] | 2670 ± 147
35 | O=C1CCCCCCCCCC1 [cycloundecanone] | 366 ± 28
36 | O=Cc1ccc2c(c1)OCO2 [piperonal] | 2570 ± 244
37 | O=CCCc1ccccc1 [hydrocinnamaldehyde] | 220 ± 24
38 | CCCCCSC [amyl methyl sulfide] | 915 ± 77
39 | CCCCCCOC(C)=O [hexyl acetate] | 841 ± 121
40 | CCCCCCC1CCC(=O)O1 (centres unmarked) [γ-decalactone] | 948 ± 153

Same assay, conditions: read-out: inhibition of Agam\Orco (OLC12 response) at 3 mM; 3 mM compound, 30 µM OLC12

Row | Compound | inhibition at 3000 µM [%]
41 | N[C@@H](Cc1c[nH]cn1)C(=O)O [histidine] | ≤ 20
42 | O=C(O)CCCCCBr [6-bromohexanoic acid] | ≤ 20
43 | N[C@@H](Cc1c[nH]c2ccccc12)C(=O)O [tryptophan] | ≤ 20
44 | OC[C@H]1OC(O)[C@H](O)[C@@H](O)[C@@H]1O (some centres unmarked) [glucose] | ≤ 20
45 | O=C(O)CCCCBr [5-bromovaleric acid] | ≤ 20
46 | CCC(=O)C(C)=O [2,3-pentanedione] | ≤ 20
47 | c1cnccn1 [pyrazine] | ≤ 20
48 | CC1=CC(=O)CC(C)(C)C1 [isophorone] | ≤ 20
49 | Oc1ccccc1O [catechol] | ≤ 20
